The record followed here is US10787457B2 (priority 2015, dated 2020).

The conditions of this data set: mouse hepatic microsome 0.25 mg/mL; 1 μM; 37° C. 30 minutes; NADPH-generating system.

For `Cc1ccc(-c2nn(C(C)(C)C)c3ncnc(N)c23)cc1` [Compound 4 of Comparative Examples, 1-(tert-butyl)-3-(p-tolyl)pyrazolo[3,4-d]pyrimidin-4-amine], the “percentage of the remaining tested compounds (remaining %)” value is recorded as 0%.
